Results published in patent publication US20230218706A1 (9 Meters Biopharma, Inc., priority 2020, published 2023).
“Also recorded” adds a separate entry of the source. Where a SMILES comes first, the peptide text is derived from it. Where no end group is shown, it is not given here. [ ]: non-standard residue; d: D form.

Key:
[1] = tested on: pig ischemic jejunum tissue; test: Ex vivo assessment of peptide stability (degradation by brush border enzymes) in pig ischemic jejunum tissue; conditions: for peptide concentration, T = 0 mins after addition / peptide concentration, T = 30 mins after addition / peptide concentration, T = 120 mins after addition: 1 μm addition of each peptide to pig ischemic jejunum tissue
Description: (§1) After 45-minutes of ischemia, the pigs were euthanized, and intestinal segments were collected. Non-ischemic control tissue was also collected at this time. Following tissue collection, the seromuscular layer was stripped from the mucosa while the tissue was bathed in oxygenated (95% 02, 5% CO2) Ringer's solution (in mmol/L: 154 Na^+, 6.3 K^+, 137 Cl^−, and 24 HCO3−; pH 7.4). The mucosa was subsequently mounted in 1.1-cm^2 aperture Ussing chambers, as described in previous studies, which are herein incorporated by reference in their entireties, Moeser, A. J.; Nighot, P. K.; Ryan, K. A.; Wooten, J. G.; Blikslager, A. T. Prostaglandin-mediated inhibition of Na+/H+ exchanger isoform 2 stimulates recovery of barrier function in ischemia-injured intestine. Am J Physiol Gastrointest Liver Physiol (2006), 291, G885-94; and Jin, Y.; Blikslager, A. T. Myosin light chain kinase mediates intestinal barrier dysfunction via occludin endocytosis during anoxia/reoxygenation injury. Am J Physiol Cell Physiol (2016), 311, C996-C1004. Tissues were bathed on both the mucosal and serosal sides with 10 mL Ringer's solution. The mucosal bathing solution contained 10 mM mannitol while the serosal side was osmotically balanced with 10 mM glucose. Bathing solutions were oxygenated (95% O2, 5% CO2) and circulated in water-jacketed reservoirs. The spontaneous potential difference (PD) was measured using Ringer-agar bridges connected to calomel electrodes, and the PD was short-circuited through Ag—AgCl electrodes using a voltage clamp that was corrected for fluid resistance. TER (Ω·cm^2) was calculated from the spontaneous PD and short-circuit current (Isc). If the spontaneous PD was between −1.0 and 1.0 mV, tissues were current clamped at ±100 μA for 5-seconds, and the PD was recorded. Isc and PD were recorded at 15-minute intervals over a 4-hour experiment. After tissues were mounted on Ussing chambers, all tissues were allowed to acclimate for a period of 30-minutes to establish stable baseline measurements, after which experimental treatments of larazotide or larazotide analogs was added to the apical chamber. Tissues were monitored by measuring transepithelial resistance (TER) for 240 min. Samples of Ringers solution were collected at select timepoints and quenched with 5% trifluoroacetic acid (TFA) solution (in 80% acetonitrile (ACN): 20% DI water). Quenched samples were centrifuged at 13000×g for 5-minutes and the resulting supernatants were stored at −80° C. for future MS analysis.
The recovery effects of Analogs #5 and 6 were also compared in an ex vivo test for recovery of ischemic-injured pig jejunum tissue. […] Analogs #5 and 6 were further compared for peptide stability—Analog #5 (D-Val), Analog #6 (All D) and larazotide concentrations were measured at TO, 30, and 120 minutes after 1 μm addition of each to pig ischemic jejunum tissue.
A set of experiments was conducted in order to compare the all-D amino acid larazotide analog (Analog #6) with larazotide in terms of degradation profiles, recovery effects, and dose response profiles.

Celiac disease symptoms = conditions: cited from earlier work
[2] = tested on: ischemic-injured porcine jejunum; test: Ex vivo recovery of transepithelial electrical resistance (TEER/TER) of ischemic-injured porcine jejunum in Ussing chambers; assay type: cell-based, pig; conditions: for activity as tight junction regulators: fragment alone; for effect of fragment on larazotide activity: fragment mixed with full-length larazotide (10 μM fragment + 1 μM larazotide, FIG. 7); for effect of excess fragment on action of Analog #6: 10 μM fragment applied 30 mins before 0.1 μM Analog #6 (100 fold excess), FIGS. 8-10; for induction of recovery of ischemic-injured tissue: FIG. 2
Description: In order to evaluate the activity profile of larazotide and larozotide analogs, an ex vivo assay was employed measuring transepithelial electrical resistance (TEER) of ischemic-injured porcine jejunum.
Several larazotide analogs were initially tested in an ex vivo model, measuring the recovery of an ischemic-injured pig jejunum tissue.
Six-to-eight-week-old Yorkshire crossbred pigs of either sex were individually housed and maintained on a commercially pelleted feed. Pigs were held off feed for 12 hours prior to experimental surgery. General anesthesia was induced with xylazine (1.5 mg/kg IM), ketamine (11 mg/kg IM), followed by mask delivery of isoflurane vaporized in 100% 02. Pigs were subsequently orotracheally intubated, followed by continued delivery of isoflurane in 100% 02 to maintain a surgical plane of anesthesia. An intravenous catheter was placed in an ear vein for delivery of fluids during surgery (lactated Ringer solution, 15 m1·kg^−1h^−1, IV). The distal jejunum was approached via a ventral midline incision. Jejunal segments were delineated by ligating the intestine at 8-10 cm intervals with 2-0 silk, and were subjected to segmental ischemia by ligating the local mesenteric blood supply with 2-0 silk for 45-minutes.
as §1, with “chamber.” for “chamber. Tissues were monitored by measuring transepithelial resistance (TER) for 240 min. Samples of Ringers solution were collected at select timepoints and quenched with 5% trifluoroacetic acid (TFA) solution (in 80% acetonitrile (ACN): 20% DI water). Quenched samples were centrifuged at 13000×g for 5-minutes and the resulting supernatants were stored at −80° C. for future MS analysis.”

[3] = tested on: BLM-induced pulmonary fibrosis model mice

Molecule: H-GGVLVQPG-OH [Larazotide, reference compound]
- peptide concentration, T = 0 mins after addition [1]: 0.508 µg/mL
- peptide concentration, T = 30 mins after addition [1]: 0.212 µg/mL
- peptide concentration, T = 120 mins after addition [1]: 0.007 µg/mL
- activity at higher doses in clinical trials (Celiac disease symptoms; higher doses (e.g., 1 mg and 2 mg doses)): attenuation of activity, or no activity at all
- reduction of Celiac disease symptoms (Celiac disease symptoms; lower doses (e.g., 0.5 mg dose)): significant benefit at reducing Celiac disease symptoms
- dose-response of repair of ischemic-injured intestine (TEER) ([2]; FIG. 1, low, middle and high dose range): “bell-shaped” dose-dependent manner

Molecule: CC(C)C[C@@H](NC(=O)[C@H](NC(=O)CNC(=O)CN)C(C)C)C(=O)N[C@@H](C(=O)N[C@H](CCC(N)=O)C(=O)N1CCC[C@@H]1C(=O)NCC(=O)O)C(C)C [Analog #6, H2N-GG(dV)(dL)(dV)(dQ)(dP)G-OH] (H-GG[dV][dL][dV][dQ][dP]G-OH)
- peptide concentration, T = 0 mins after addition [1]: 0.517 ug/ml ug/mL
- peptide concentration, T = 30 mins after addition [1]: 0.436 µg/mL
- peptide concentration, T = 120 mins after addition [1]: 0.086 µg/mL
- resistance to brush border enzyme degradation ([1]; jejunum epithelial brush border enzymes, in words (Table 2, FIG. 4)): significant resistance to brush border enzyme degradation as compared to larazotide and Analog #5; also recorded: significantly more resistant to degradation than larazotide
- lung fibrosis, Ashcroft grading of Masson's Trichrome-stained right lung sections ([3]; 1 mg/kg orally once daily Day 0 to 20, sacrifice Day 21, FIG. 18): less fibrosis than either the vehicle or larazotide samples
- therapeutic effect in mouse model of pulmonary fibrosis ([3]; provided orally): better therapeutic effect than larazotide
- dose response of repair of injured intestine (TER) ([2]; 0.01 μM, 0.1 μM, 1 μM and 10 μM, FIG. 6): did not exhibit the distinct bell-shaped dose-response of larazotide
- recovery of TER ([2]; 0.1 μM, FIG. 6): induced good recovery of TER
- recovery of ischemic-injured intestine (transepithelial electrical resistance) ([2]; 1 μM, recovery period of 240 minutes, FIG. 5): induces recovery to substantially the same extent as larazotide
- recovery effect on ischemic-injured pig jejunum tissue ([2]; FIG. 3, Analog #6 compared with Analog #5): pronounced recovery effect as compared to Analog #5

Molecule: CC(C)C[C@H](NC(=O)[C@H](NC(=O)CNC(=O)CN)C(C)C)C(=O)N[C@H](C(=O)N[C@@H](CCC(N)=O)C(=O)N1CCC[C@H]1C(=O)NCC(=O)O)C(C)C [Analog #5, H2N-GG(dV)LVQPG-OH] (H-GG[dV]LVQPG-OH)
- peptide concentration, T = 0 mins after addition [1]: 0.510 µg/mL
- peptide concentration, T = 30 mins after addition [1]: 0.012 µg/mL
- peptide concentration, T = 120 mins after addition [1]: 0.005 µg/mL

Molecule: GVLVQPG [Fragment 1, reference compound]
- activity as tight junction regulators [2]: inactive as tight junction regulators
- effect of fragment on larazotide activity [2]: inhibit larazotide activity; also recorded: activity is completely abolished

Molecule: (d)Val-(d)Leu-(d)Val-(d)Gln-(d)Pro-Gly [Analog A6F2]
- effect of excess fragment on action of Analog #6 [2]: does not appear to be meaningfully blocked

Molecule: H2N-(dV)GGVLVQPG-OH (H-[dV]GGVLVQPG-OH; SMILES CC(C)C[C@H](NC(=O)[C@@H](NC(=O)CNC(=O)CNC(=O)[C@H](N)C(C)C)C(C)C)C(=O)N[C@H](C(=O)N[C@@H](CCC(N)=O)C(=O)N1CCC[C@H]1C(=O)NCC(=O)O)C(C)C) [Analog #2]
- induction of recovery of ischemic-injured tissue [2]: no significant induction of recovery

Molecule: H2N-GGV(dL)VQPG-OH (H-GGV[dL]VQPG-OH) [Analog #1]
- induction of recovery of ischemic-injured tissue [2]: no significant induction of recovery

Molecule: Gly-(d)Val-(d)Leu-(d)Val-(d)Gln-(d)Pro-Gly [Analog A6F1]
- effect of excess fragment on action of Analog #6 [2]: less significant impact on the action of the all-D amino acid larazotide analog

Molecule: VLVQPG [Fragment 2, reference compound]
- activity as tight junction regulators [2]: inactive as tight junction regulators
- effect of fragment on larazotide activity [2]: inhibit larazotide activity; also recorded: activity is completely abolished

Molecule: H2N-VGGVLVQPG-OH (H-VGGVLVQPG-OH) [Analog #3]
- induction of recovery of ischemic-injured tissue [2]: no significant induction of recovery
